Measurements taken from publication PMC11085308, “Design, Synthesis and Biological Activity of Novel Methoxy- and Hydroxy-Substituted N-Benzimidazole-Derived Carboxamides” (Molecules, 2024).
Values after ≈ are worked out from the molar mass of the structure shown. “Also recorded” adds a separate entry of the source.

Columns and labels:
S. aureus ATCC 29213 = assay: Antibacterial activity in vitro, broth microdilution MIC; format: cell-based, Staphylococcus aureus; details: for MIC S. aureus ATCC 29213: broth microdilution, 16–24 h at 37 °C, unit inferred
Procedure: (§1) The in vitro antibacterial activity of the synthesized benzamides 7–12 and 31–37 was evaluated against a panel of eight different bacterial strains. The Gram-positive bacterial strains comprised S. aureus, S. pneumoniae and E. faecalis, and the panel of Gram-negative bacteria consisted of E. coli, K. pneumoniae, A. baumannii and P. aeruginosa.
(§2) The selected bacterial strains were Gram-negative Escherichia coli (ATCC 25922) and Gram-positive Staphylococcus aureus (ATCC 29213) and S. Pneumoniae (ATCC 49619). The Saccharomyces cerevisiae ATCC 7752 strain was tested as a eukaryotic model organism. Synthesized compounds were prepared as 10 mM DMSO solutions and tested in a final concentration range of 100–0.2 µM [39].
(§3) Broth microdilution testing was performed according to CLSI (Clinical Laboratory Standards Institute) guidelines. The MIC (minimal inhibitory concentration) value was defined as the last tested concentration of a compound at which there is no visible growth of bacteria. Inoculums for each microorganism were prepared using the direct colony suspension method, where broth solutions that achieved turbidity equivalent to 0.5 McFarland standards were additionally diluted 100× with cation-adjusted MH media (Becton Dickinson). All test plates were incubated for 16–24 h at 37 °C.

A. baumannii ATCC 17978 = assay: as above; format: cell-based; details: 16–24 h at 37 °C, unit inferred
Procedure: as §1, §2, §3

E. faecalis ATCC 29212 = assay: as above; format: cell-based; details: for MIC E. faecalis ATCC 29212: broth microdilution, 16–24 h at 37 °C, unit inferred; for Selectivity of antibacterial activity, in words: against the Gram-positive strain E. faecalis
Procedure: as §1, §2, §3

P. aeruginosa ATCC 27853 = assay: as above; format: cell-based; details: 16–24 h at 37 °C, unit inferred
Procedure: as §1, §2, §3

E. coli ATCC 25922 = assay: as above; format: cell-based, Escherichia coli; details: 16–24 h at 37 °C, unit inferred
Procedure: as §1, §2, §3

E. coli efflux del. = assay: microbe, parasite or virus in culture; format: cell-based, Escherichia coli; details: broth microdilution, 16–24 h at 37 °C; unit inferred
Procedure: as §1, §2, §3

H460 (lung carcinoma) = assay: Antiproliferative activity in vitro, MTT assay, 72 h; format: cell-based; details: Homo sapiens, NCI-H460, 72 h incubation
Procedure: (§4) The experiments were carried out on four human cell lines which are derived from three cancer types: H460 (lung carcinoma), HCT 116 (colorectal carcinoma), MCF-7 (human breast cancer) and the non-cancerous cell line HEK 293 (human embryonic kidney).
(§5) The results are compared with the known antiproliferative agents doxorubicin and etoposide. […] Therefore, it is not clear whether the observed antiproliferative activity is due to the biological activity of the compounds or to precipitation.
(§6) The experiments were performed on four human cell lines, including HCT 116 (colon carcinoma), H 460 (lung carcinoma), MCF-7 (breast carcinoma) and HEK 293 (human embryonic kidney cells), in line with previously published experimental procedures. Briefly, the cells were grown in DMEM medium with the addition of 10% fetal bovine serum (FBS), 2 mM of L-glutamine, 100 U/mL of penicillin and 100 µg/mL of streptomycin and cultured as monolayers at 37 °C in a humidified atmosphere with 5% CO2. Cells were seeded at 2 × 10^3 cells/well in standard 96-well microtiter plates and left to attach for 24 h. The next day, a test compound was added in five serial 10-fold dilutions. The rate of cell growth was evaluated after 72 h of incubation with MTT assays. […] Each test was performed in quadruplicate in at least two individual experiments.

[1] = test system: HCT 116 (colorectal carcinoma); assay: as above; format: cell-based; details: Homo sapiens, 72 h incubation, '-' with footnote a = did not show biological activity due to precipitation
Procedure: as §4, §5, §6

[2] = test system: MCF-7 (human breast cancer); assay: as above; format: cell-based; details: MCF7, 72 h incubation
Procedure: as §4, §5, §6

[3] = test system: HEK 293 (human embryonic kidney); assay: Antiproliferative activity in vitro, MTT assay, 72 h, non-cancerous cell line; format: cell-based; details: HEK293, 72 h incubation, '-' with footnote a = did not show biological activity due to precipitation
Procedure: as §4, §5, §6

[4] = Ferric reducing/antioxidant power (FRAP assay); design: FRAP: unit not given here; details: for FRAP: Fe2+ equivalents, triplicate; for FRAP ferric reducing/antioxidant power, in words: compared to the standard BHT
Procedure: (§7) The synthesized benzazole acrylonitrile derivatives were screened for their antioxidative potency by using in vitro assays, namely DPPH and ABTS as free radical scavenging assays and FRAP as a ferric reducing/antioxidant power assay.
The antioxidant activity of a substance is directly related to its reducing power.
The FRAP method was carried out according to previously described procedures with some modifications to make it compatible with an assay on a 96-well microplate. All results were expressed as Fe^2+ equivalents (Fe^2+ µmol). Ferrous sulphate (FeSO4 × 7H2O) was used to develop a standard curve of 20–2000 µmol/l for the FRAP test.

[5] = DPPH free radical scavenging assay; details: compared to the standard BHT
Excerpt: as §7
The well-known antioxidant butylated hydroxytoluene (BHT) was used as a standard for comparing activity during testing. The DPPH assay is a standard commonly used test for the in vitro assessment of the antioxidant capacity of novel compounds by using their ability to scavenge the stable radical 1,1-diphenyl-picrylhydrazyl. […] Another test used to evaluate the antioxidative capacity of novel compounds was the ABTS test, by which their activity was evaluated by scavenging the stable radical 3-ethylbenzthiazoline-6-sulphonic acid.
Determination of the reducing activity of the stable radical 1,1-diphenyl-picrylhydrazyl (DPPH):
The reducing activity of the investigated systems was measured by the DPPH method according to previously described procedures with modifications to ensure their use on a 96-well microplate. Briefly, equal volumes of various concentrations of the tested molecules (dissolved in DMSO) were added to a solution of DPPH (final concentration of 50 µM in absolute ethanol). Ethanol and DMSO were used as control solutions in line with earlier reports. The radical scavenging activity was calculated using the following formula:[(A517 control − A517 compound)/A517 control] × 100.
The IC50 values were calculated from dose–response curves using nonlinear regression analysis with the GraphPad Prism 8 Ink. program. All measurements were carried out in triplicate.

Row | Compound | MIC S. aureus ATCC 29213 (S. aureus ATCC 29213) | MIC A. baumannii ATCC 17978 (A. baumannii ATCC 17978) | MIC E. faecalis ATCC 29212 (E. faecalis ATCC 29212) | MIC P. aeruginosa ATCC 27853 (P. aeruginosa ATCC 27853) | MIC E. coli ATCC 25922 (E. coli ATCC 25922) | MIC E. coli efflux del. (E. coli efflux del.) | IC50 (H460 (lung carcinoma)) | IC50 [1] | IC50 [2] | IC50 [3] | FRAP [4] | FRAP ferric reducing/antioxidant power, in words [4] | DPPH free radical scavenging activity, in words [5] | MIC (E. faecalis ATCC 29212; Enterococcus faecalis, ATCC29212, read-out: MIC E. faecalis) | Selectivity of antibacterial activity, in words (E. faecalis ATCC 29212) | melting point | MIC (S. aureus ATCC 29213; Staphylococcus aureus, ATCC29213, read-out: MIC S. aureus)
1 | C[C@@H](O)[C@H]1C(=O)N2C(C(=O)O)=C(S[C@@H]3CN[C@H](C(=O)N(C)C)C3)[C@H](C)[C@H]12 [Meropenem, meropenem, reference compound] | < 0.125 µM | 0.5 µM (≈ 0.192 µg/mL) | 8 µM (≈ 3.07 µg/mL) | 1 µM (≈ 0.383 µg/mL) | < 0.125 µM | < 0.125 µM | – | – | – | – | – | – | – | – | – | – | –
2 | CC[C@H]1OC(=O)[C@H](C)[C@@H](O[C@H]2C[C@@](C)(OC)[C@@H](O)[C@H](C)O2)[C@H](C)[C@@H](O[C@@H]2O[C@H](C)C[C@H](N(C)C)[C@H]2O)[C@](C)(O)C[C@@H](C)CN(C)[C@H](C)[C@@H](O)[C@]1(C)O [Azithromycin, azithromycin, reference compound] | 1 µM (≈ 0.749 µg/mL) | 8 µM (≈ 5.99 µg/mL) | 8 µM (≈ 5.99 µg/mL) | 32 µM (≈ 24 µg/mL) | 4 µM (≈ 3 µg/mL) | 0.5 µM (≈ 0.374 µg/mL) | – | – | – | – | – | – | – | – | – | – | –
3 | COc1c(O)cc(C(=O)Nc2nc3ccccc3[nH]2)cc1O [Compound 8, N-(1H-benzo[d]imidazol-2-yl)-3,5-dihydroxy-4-methoxybenzamide] | > 64 µM | > 64 µM | 8 µM (≈ 2.39 µg/mL) | > 64 µM | > 64 µM | > 64 µM | 91.8 ± 1 µM | > 100 µM | 52.9 ± 16 µM | 49.4 ± 3.3 µM | 2461.93 ± 21.42 | excellent in vitro antioxidant activity | significantly improved | 8 µM (≈ 2.39 µg/mL) | selective antibacterial activity | – | –
4 | CNC(C)C1CCC(N)C(OC2C(N)CC(N)C(OC3OCC(C)(O)C(NC)C3O)C2O)O1 (stereo not shown) [Gentamicin, gentamicin, reference compound] | 0.25 µM (≈ 0.119 µg/mL) | 4 µM (≈ 1.91 µg/mL) | 16 µM (≈ 7.64 µg/mL) | 2 µM (≈ 0.955 µg/mL) | 0.5 µM (≈ 0.239 µg/mL) | 1 µM (≈ 0.478 µg/mL) | – | – | – | – | – | – | – | – | – | – | –
5 | O=C(O)c1cn(C2CC2)c2cc(N3CCNCC3)c(F)cc2c1=O [Ciprofloxacin, ciprofloxacin, reference compound] | 0.25 µM (≈ 0.0828 µg/mL) | – | 4 µM (≈ 1.33 µg/mL) | – | – | – | – | – | – | – | – | – | – | – | – | – | –
6 | NC[C@H]1O[C@H](O[C@H]2[C@H](O)[C@@H](O[C@H]3O[C@H](CO)[C@@H](O)[C@H](N)[C@H]3O)[C@H](N)C[C@@H]2N)[C@H](N)C[C@@H]1O [Tobramycin, reference compound] | 0.25 µM (≈ 0.117 µg/mL) | 2 µM (≈ 0.935 µg/mL) | 8 µM (≈ 3.74 µg/mL) | 0.5 µM (≈ 0.234 µg/mL) | 1 µM (≈ 0.468 µg/mL) | 1 µM (≈ 0.468 µg/mL) | – | – | – | – | – | – | – | – | – | – | –
7 | CC1(C)S[C@@H]2[C@H](NC(=O)[C@H](N)c3ccccc3)C(=O)N2[C@H]1C(=O)O [Ampicillin, ampicillin, reference compound] | 0.5 µM (≈ 0.175 µg/mL) | 32 µM (≈ 11.2 µg/mL) | 1 µM (≈ 0.349 µg/mL) | > 64 µM | – | – | – | – | – | – | – | – | – | – | – | – | –
8 | CC(C)(O/N=C(\C(=O)N[C@@H]1C(=O)N2C(C(=O)[O-])=C(C[n+]3ccccc3)CS[C@H]12)c1csc(N)n1)C(=O)O [Ceftazidime, ceftazidime, reference compound] | 4 µM (≈ 2.19 µg/mL) | 4 µM (≈ 2.19 µg/mL) | > 64 µM | 2 µM (≈ 1.09 µg/mL) | – | – | – | – | – | – | – | – | – | – | – | – | –
9 | O=C(Nc1nc2ccccc2n1-c1ccccc1)c1cc(O)c(O)c(O)c1 [Compound 34, 3,4,5-Trihydroxy-N-(1-phenyl-1H-benzo[d]imidazol-2-yl)benzamide] | > 64 µM | > 64 µM | 32 µM (≈ 11.6 µg/mL) | > 64 µM | > 64 µM | > 64 µM | > 100 µM | > 100 µM | 49.4 ± 27.3 µM | 85.1 ± 8.8 µM | 6.83 ± 1.26 | very low | significantly improved; also recorded: exceptional activity | – | selective antibacterial activity | 278 to 281 °C | –
10 | CC(C)Cn1c(NC(=O)c2cc(O)c(O)c(O)c2)nc2ccccc21 [Compound 33, 3,4,5-Trihydroxy-N-(1-isobutyl-1H-benzo[d]imidazol-2-yl)benzamide] | 32 µM (≈ 10.9 µg/mL) | > 64 µM | 64 µM (≈ 21.8 µg/mL) | > 64 µM | > 64 µM | 64 µM (≈ 21.8 µg/mL) | > 100 µM | 43.2 ± 18.6 µM | 90.8 ± 1.6 µM | 77.1 ± 7.9 µM | 4154.35 ± 1.26 | excellent in vitro antioxidant activity | significantly improved | – | – | 291 to 293 °C | 32 µM (≈ 10.9 µg/mL)
11 | COc1cc([C@@H]2c3cc4c(cc3[C@@H](O[C@@H]3O[C@@H]5CO[C@@H](C)O[C@H]5[C@H](O)[C@H]3O)[C@H]3COC(=O)[C@H]23)OCO4)cc(OC)c1O [Etoposide, etoposide, reference compound] | – | – | – | – | – | – | 2.2 ± 0.4 µM | 2.2 ± 0.4 µM | 0.6 ± 0.1 µM | 0.65 ± 0.02 µM | – | – | – | – | – | – | –
12 | CN(C)[C@@H]1C(O)=C(C(N)=O)C(=O)[C@@]2(O)C(O)=C3C(=O)c4c(O)cccc4[C@@](C)(O)[C@H]3C[C@@H]12 [Tetracycline, tetracycline, reference compound] | – | – | – | – | – | 32 µM (≈ 14.2 µg/mL) | – | – | – | – | – | – | – | – | – | – | –
13 | COc1cccc2c1C(=O)c1c(O)c3c(c(O)c1C2=O)C[C@@](O)(C(=O)CO)C[C@@H]3O[C@H]1C[C@H](N)[C@H](O)[C@H](C)O1 [Doxorubicin, doxorubicin, reference compound] | – | – | – | – | – | – | 0.04 ± 0.01 µM | 0.04 ± 0.01 µM | 0.009 ± 0.004 µM | 0.02 ± 0.01 µM | – | – | – | – | – | – | –
